The values below come from publication PMC8706516, “Spray-Dried Powder Formulation of Capreomycin Designed for Inhaled Tuberculosis Therapy” (Pharmaceutics, 2021).

Read-outs that look alike come from different tables or passages of the source. Marks after values point to notes of the source that are not given here.

The format of this data set is in vivo, BALB/c mice. As to conditions: 20 mg/kg. The procedure:
BALB/c mice of either gender aged 7 to 9 weeks weighing between 18 to 30 g were employed in this study. The mice were obtained from the Centre for Comparative Medicine Research, The University of Hong Kong. They were housed in a 12-h light/12-h dark cycle with food and water supplied ad libitum. All the animal experiments were performed with the approval from the Committee on the Use of Live Animals in Teaching and Research, The University of Hong Kong (CULATR 4921-19, approved on 1 February 2019).
The mice were randomly divided into two treatment groups (n = 45 per group, five mice per time point, nine time points in total). The intravenous (IV) group received capreomycin (sulfate) solution prepared in normal saline (4 mg/mL) via tail vein injection at a dose of 20 mg/kg. Intratracheal (IT) group received the C25_T90 formulation as powder aerosol intratracheally as previously described. In brief, the powder was loaded in a 200 µL gel loading pipette tip, which was connected with a three-way stopcock and 1 mL syringe. The pipette tip was inserted into the trachea of mice under anesthesia. The powder was dispersed into the lungs of mice by 0.6 mL of air in the syringe. After each powder insufflation, the pipette tip was removed and rinsed with 1 mL ultra-pure water. The rinsing solution was assayed by HPLC to calculate the residual mass of capreomycin in the tip. The delivered mass of capreomycin was calculated as drug content in the loaded mass of powder minus the residual mass of capreomycin in the tip. The insufflation efficiency (%) was the ratio of delivered mass of capreomycin to the loaded mass of capreomycin. According to a preliminary study, the insufflation efficiency of C25_T90 formulation was around 80% (unpublished data). […] The delivered dose within 17.5 to 22.5 mg/kg was considered successful administration, and mice that received dose outside this range were excluded. At 5 min, 15 min, 30 min, 1 h, 2 h, 4 h, 6 h, 8 h, and 24 h post-administration, the mice were euthanized with overdose pentobarbital (200 mg/kg). The whole blood was collected by cardiac puncture, followed by centrifugation at 13,000 rpm for 10 min to obtain the plasma. The lungs were collected and frozen in liquid nitrogen immediately. The plasma and lung tissues were stored at −80 °C until further analysis.
The extraction of capreomycin from plasma and tissue homogenates was performed according to a previous study with minor modification. Tissue homogenates were obtained by homogenizing the tissue with sterile water. A volume of 1 µL perchloric acid was added to a microcentrifuge tube containing 100 µL of plasma or tissue homogenates to induce protein precipitation. The mixtures were vortexed for 10 min and centrifuged at 16,000× g for 10 min. The supernatant was collected and neutralized with 110 µL basic mix of 1:10 KOH/K2HPO4 solution. The obtained mixtures were then vortexed, followed by centrifugation at 16,000× g for 15 min. The supernatant was transferred to glass vials for HPLC analysis. A standard curve was obtained by spiking known concentrations of capreomycin (0.6 to 40.0 µg/mL) into blank plasma or blank lung tissue homogenate followed by treatment as mentioned above. HPLC was performed using a C18 column (5 μm, 4.6 × 250 mm, Agilent, Santa Clara, CA, USA) with a guard cartridge. In this HPLC method, HFBA replaced TFA to improve peak resolution of the samples. The mobile phase consisted of 0.1% HFBA in ultrapure water (solvent A) and 0.1% HFBA in HPLC grade acetonitrile (solvent B), pumped at 1 mL/min under the following gradient: 0 to 2 min, 80% A; 2 to 22 min, 80–20% A; 22 to 25 min, 20% A (v/v). A volume of 50 µL sample was injected and capreomycin was detected by UV absorption at 268 nm. Capreomycin eluted at approximately 9.7 min with this method. […]

Setting [1] is: lung tissue, intravenous solution.
Setting [2] is: lung tissue, intravenous, solution in normal saline, HPLC-UV, noncompartmental, mean ± SD, n = 5.
The mark [3] stands for this setting: lung tissue, intravenous, solution in normal saline, HPLC-UV, noncompartmental, mean ± SD, only three sets of data.
The mark [4] stands for this setting: plasma, intravenous, solution in normal saline, HPLC-UV, noncompartmental, mean ± SD, n = 5.

What is called Cmax is the peak of the concentration-time curve. As usually defined, the MRT is a mean duration of stay, worked out from the concentration-time curve. In general, Tmax refers to the time from dosing to the highest level. Capreomycin: under setting [1], the “Time after administration at which capreomycin was no longer detectable in the lung” value was determined as 1 h and the “Time to Cmax” value is reported as no more than 20 min. For the same substance, under setting [2], the “AUC0–t” value was 6710 ± 510 ng·h/mL, the Cmax turned out to be 18.23 ± 8.34 µg/g, the MRT amounted to 13.8 ± 7.8 min and the Tmax turned out to be 7.2 ± 4.2 min. Under setting [3], the “AUC0–∞” value is recorded as 7.78 ± 0.46 ^b µg·h/mL, the Kel is reported as 2.37 ± 0.23 ^b h^−1 and the t1/2 is recorded as 0.29 ± 0.03 ^b h. Under setting [4], the Cmax is 74.89 ± 10.94 µg/mL, the “AUC0–t” value was 32550 ± 5520 ng·h/mL, the “AUC0–∞” value is listed as 33.78 ± 5.54 µg·h/mL and the Kel was found to be 2.74 ± 1.67 h⁻¹. The substance further had a t1/2 under setting [4] of 0.34 ± 0.20 h. The “Tmax” value (plasma, intravenous solution) is on record as no more than 10 min.
